# Source: patent publication US9655877B2, “Therapeutic methods for treating inflammation and immune system disorders” (priority 2009, dated 2017)
# “And” between values parts separate entries of the source, which are not always exact repeats. Equal entries are not always repeated.
# What was measured:
# Neuro-2a cells [1] = assay: Conditioned culture medium transfer model (LPS-treated BV-2 supernatant on Neuro-2a), MTT assay; format: cell-based, murine; conditions: supernatant of BV-2 cells treated with 100 ng/ml LPS and 50 μg/ml compound 18 h, on Neuro-2a 48 h; LPS only more than 40%
# Procedure: BV-2 cells (3×10^5 cells/ml) were first treated with 100 ng/ml LPS for 18 h, in the presence of either 0.05% DMSO or 50 μg/ml senkyunolide A or Z-ligustilide. After centrifugation, the supernatants from BV-2 cells were transferred to Neuro-2a cells ([…]) for 48 h. Viability of Neuro-2a cells was measured using MTT assays. Results are shown as mean SD from three independent experiments. *p<0.05 compared with DMSO+LPS.
# BV-2 cells were seeded at 3×10^5 cells/ml in 12-well culture plates (1 ml in each well). They were co-treated with or without 100 ng/ml LPS, in the presence of 0.05% DMSO, 50 μg/ml senkyunolide A, or 50 μg/ml Z-ligustilide, for 18 h. The supernatants were then collected and centrifuged at 13,200 rpm for 3 min. The resulting supernatants were then transferred to Neuro-2a cells (1×10^5 cells/ml in 24-well culture plates), which were incubated for another 48 h. Cell viability of Neuro-2a cells was measured by MTT assay.
# Briefly, to investigate the physiological significance of Sen A and Z-Lig, a conditioned culture medium transfer model, commonly used for studying neuronal cell death induced by microglial activation, was adopted. After BV-2 cells were challenged with LPS, the supernatants were collected and centrifuged. The conditioned culture media were then transferred to Neuro-2a cell cultures.
# Neuro-2a cells [2] = assay: Neuro-2a cells treated with compound alone in the culture media; format: cell-based, murine; conditions: compound alone in the culture media (data not shown)
# From the text: Specifically, a significant reduction in cell death, to less than 15% and 25%, respectively, was observed.
# [3] = test system: nitrite production in BV-2 cells; assay: LPS-induced nitrite (nitric oxide) production in BV-2 cells, Griess reagent; format: cell-based, murine; conditions: 100 ng/ml LPS, 1-50 μg/ml, 18 hours
# Procedure: Nitrite levels in the culture media were determined using Griess reagent under manufacturer's instructions (Sigma Aldrich, St. Louis, Mo.). Fresh culture media were used as blanks and the nitrite levels were determined by using a standard sodium nitrite curve.
# The effect of each extract on nitric oxide production is evaluated according to the procedures illustrated as follows. Briefly, murine microglia cell line BV-2 is maintained in Dulbecco's modified Eagle's minimum essential medium (DMEM) supplemented with 10% FBS and 1% penicillin and streptomycin (Invitrogen Life Technologies, Carlsbad, Calif.) at 37° C. in a humidified atmosphere with 5% CO2 in warm air.
# 0.1 M cells/ml BV-2 cells are seeded in 24-well plates (0.5 ml in each well). Cells are treated with 0.05% DMSO; 0.05% DMSO and 100 ng/ml LPS; or 100 ng/ml LPS and 50 μg/ml of an LCX extract for 18 hours, respectively. The culture supernatant is collected. The nitric oxide level is measured using the Griess reagent according to standard manufacturer's instructions (Sigma Aldrich, St. Louis, Mo.), and assessed using the standard sodium nitrite curve.
# The effect of senkyunolide A (Sen A) and Z-ligustilide (Z-Lig) at various concentrations on LPS-induced nitrite production is further evaluated in this Example. Briefly, 0.1 M cells/ml BV-2 cells are seeded in 24-well plates (0.5 ml in each well). Cells are treated with 0.05% DMSO; 0.05% DMSO and 100 ng/ml LPS; 50 μg/ml Sen A/Z-Lig; or 100 ng/ml LPS and Sen A/Z-Lig at a concentration of 1 μg/ml, 5 μg/ml, 10 μg/ml, 25 μg/ml, and 50 μg/ml for 18 hours, respectively. The culture supernatant is collected. The nitric oxide level is measured using the Griess reagent according to standard manufacturer's instructions (Sigma Aldrich, St. Louis, Mo.), and evaluated using the standard sodium nitrite curve.
# [4] = test system: TNF-α protein production in BV-2 cells; assay: LPS-induced TNF-α protein production in BV-2 cells, ELISA; format: cell-based, murine; conditions: 100 ng/ml LPS, 18 hours
# Procedure: To measure the TNF-α level in cell culture supernatants, BV-2 cells were seeded at 1×10^5 cells/ml in the volume of 0.5 ml in 24-well culture plates. They were co-treated with or without 100 ng/ml LPS in the absence or presence of indicated concentrations of bioactive compounds of LCX for 18 h. In addition, PBMac cells were seeded at 1×10^6 cells/ml in the volume of 0.5 ml in 24-well plates. After incubation, the supernatants were collected and TNF-α levels were determined by ELISA according to the manufacturer's instructions (R&D Systems).
# The role of senkyunolide A (Sen A) and Z-ligustilide (Z-Lig) in suppressing TNF-α production is further evaluated in this Example. Briefly, 5×10^4 cells/ml BV-2 cells are seeded in 24-well plates (0.5 ml in each well). Cells are treated with 0.05% DMSO; 0.05% DMSO and 100 ng/ml LPS; 50 μg/ml Sen A/Z-Lig; or 100 ng/ml LPS and Sen A/Z-Lig at a concentration of 1 μg/ml, 5 μg/ml, 10 μg/ml, 25 μg/ml, and 50 μg/ml for 18 hours, respectively. The culture supernatant is collected and the level of secreted TNF-α is measured by ELISA.
# [5] = test system: TNF-α production in human blood macrophages; assay: LPS-induced TNF-α production in human blood macrophages (PBMac), ELISA; format: cell-based; conditions: 25 or 50 μg/ml for 24 hours, then 1 ng/ml LPS for 24 hours
# Procedure: To measure the TNF-α level in cell culture supernatants, BV-2 cells were seeded at 1×10^5 cells/ml in the volume of 0.5 ml in 24-well culture plates. They were co-treated with or without 100 ng/ml LPS in the absence or presence of indicated concentrations of bioactive compounds of LCX for 18 h. In addition, PBMac cells were seeded at 1×10^6 cells/ml in the volume of 0.5 ml in 24-well plates. After incubation, the supernatants were collected and TNF-α levels were determined by ELISA according to the manufacturer's instructions (R&D Systems). […] To study the effect of Sen A and Z-Lig at various concentrations on TNF-α production, 1×10^6 cells/ml (FIG. 6) PBMac cells are seeded in 24-well plates (0.5 ml in each well). Cells are treated with 25 μg/ml or 50 μg/ml Sen A, Z-Lig, or DMSO for 24 hours prior to the addition of 1 ng/ml LPS, and further incubated for another 24 hours. The culture supernatants are collected and the level of secreted TNF-α is measured by ELISA according to the manufacturer's instructions (R&D Systems, Minneapolis, Minn.).
compound,measurement,setting,value
CCC/C=C1\OC(=O)C2=C1CCC=C2 [Z-ligustilide],cell death of Neuro-2a cells,Neuro-2a cells [1],< 25%
same,cell death with compound alone,Neuro-2a cells [2],did not show cell death
same,effect on nitrite production over concentrations,[3],inhibits nitrite production in a dose-dependent manner
same,effect on TNF-α production over concentrations,[4]; 1-50 μg/ml,inhibits TNF-α production in a dose-dependent manner
same,concentration that significantly inhibits TNF-α production,[4],10 µg/mL and > 10 µg/mL
same,effect on endotoxin-induced TNF-α production,[5],suppress endotoxin-induced TNF-α production in a dose-dependent manner
